Patent US20100004485A1, “GABAPENTIN ENACARBIL SALTS AND PROCESSES FOR THEIR PREPARATION” (priority 2008, published 2010)

Columns and labels:
[1] = Solubility test in distilled water; assay type: physicochemical; details: for Solubility in water (class in words) / Solubility (g/ml water): distilled water; for Solubility (g/ml water): 100 mg sample
Protocol: Solubility was determined by placing 100 mg of sample material in a 50 ml glass beaker, adding 10 μL portions of distilled water and agitating until dissolved.

[2] = Hygroscopicity / water content at room conditions (TGA, FIG. 6); assay type: physicochemical; details: for Hygroscopicity: room conditions, GBPE-Ca compared to GBPE sodium salt
Protocol: Thermogravimetric Analysis (“TGA”) • TGA data obtained from TGA/DSC 1 of Mettler-Toledo or TA Instruments TGA 2959 • Heating range: 25-200 C; heating rate: 10° C./min, • Nitrogen flow 40 ml/min • Mass weight about 10 mg.

[3] = Thermogravimetric analysis (TGA): temperature at which thermal decomposition starts; assay type: physicochemical; details: 25-200 C, 10° C./min, nitrogen
[4] = long period of storing

Structure (SMILES) | Solubility in water (class in words) [1] | Hygroscopicity [2] | Temperature at which decomposition starts [3] | Water content when kept in room conditions ([2]; FIG. 6) | Stability of form during storage [4] | Solubility (g/ml water) [1] | Solubility compared to GBPE sodium salt [1]
CC(OC(=O)NCC1(CC(=O)O)CCCCC1)OC(=O)C(C)C (stereo not drawn) [GBPE amorphous, 1-{[(α-isobutanoyloxyethoxy)carbonyl]-aminomethyl}-1-cyclohexane acetic acid, reference compound] | insoluble |  |  |  |  |  | 
CC(OC(=O)NCC1(CC(=O)[O-])CCCCC1)OC(=O)C(C)C.[Na+] (stereo not shown) [GBPE sodium salt, reference compound] |  | extremely hydrophilic |  |  |  |  | 
CC(OC(=O)NCC1(CC(=O)[O-])CCCCC1)OC(=O)C(C)C.CC(OC(=O)NCC1(CC(=O)[O-])CCCCC1)OC(=O)C(C)C.[Ba+2] (stereo not shown) [GBPE-Ba salt] | freely soluble (a compound having a solubility of about 0.1 to about 1 g/ml) | non-hygroscopic | 60 °C | contained no water | stability over a long period of time | 0.125 g/mL | 
CC(OC(=O)NCC1(CC(=O)[O-])CCCCC1)OC(=O)C(C)C.CC(OC(=O)NCC1(CC(=O)[O-])CCCCC1)OC(=O)C(C)C.[Ca+2] (stereo not shown) [GBPE-Ca salt] | sparingly soluble (a compound having a solubility of about 0.01 g/ml to about 0.03 g/ml) | less hygroscopic | 70 °C |  |  | 0.016 g/mL | less soluble
CC(OC(=O)NCC1(CC(=O)[O-])CCCCC1)OC(=O)C(C)C.CC(OC(=O)NCC1(CC(=O)[O-])CCCCC1)OC(=O)C(C)C.[Mg+2] (stereo not shown) [GBPE-Mg salt] | sparingly soluble (a compound having a solubility of about 0.01 g/ml to about 0.03 g/ml) |  | 70 °C |  |  | 0.020 g/mL | 
